What was measured:
Assay type in all cases: cell-based, human
[1] = tested on: aHDFs into which F, T, L, and K had been introduced; test: examination of medium components (modified Uromedium) for selective proliferation of dUCs; details: for influence of concentration of the component on UPK2 mRNA: Uromedium with modified concentration
Description: (A) aHDFs into which F, T, L, and K had been introduced were cultured in “Uromedium” medium with modified concentrations of insulin, hydrocortisone, EGF, and IBMX. On Day 21, total RNA was extracted from aHDFs and control aHDFs free of gene introduction, and the gene expression level of UPK2 was measured by real-time RT-PCR. The values shown by mean±SD were normalized by β-actin mRNA expression and shown relative to the value of aHDFs free of gene introduction as 1.0 (N=3). (B) Phase-contrast microscopic images of aHDFs into which F, T, L, and K were introduced, and cultured for 21 days in “Uromedium” medium in which the concentration of hydrocortisone was modified to 0-fold and the concentration of IBMX was modified to 10-fold. Imaging magnification: ×10 (C) Phase-contrast microscopic images of aHDFs into which F, T, L, and K were introduced, and cultured for 21 days in “Uromedium” medium with or without addition of 1 μM tranylcypromine. The bar is 100 μm. (D) Phase-contrast microscopic images of aHDFs into which F, T, L, and K were introduced or not introduced, and cultured for 21 days in “Uromedium” medium or “UCM” medium. The bar is 100 μm.
“Uromedium” medium was produced according to the method of Osborn et al. (Osborn S L, (2014) Stem Cell Transl Med 3(5):610-619.). In summary fashion, the “Uromedium” medium is composed of EpiLife™ medium supplemented with 60 μM calcium (Gibco; MEP1500CA), 60 μg/mL bovine brain hypophysis extract (Gibco), 5 μg/mL human gene recombinant insulin (Diagnocine), 500 ng/mL hydrocortisone (Tokyo Chemical Industry Co., Ltd.), gentamicinamphotericin (Gibco), 2% FBS, 0.1 ng/mL human gene recombinant epidermal growth factor (EGF) (RSD), and 100 μM 3-isobutyl 1-methylxanthine (IBMX) (Sigma-Aldrich).
The “UCM” medium is composed of EpiLife™ medium supplemented with 60 μM calcium, 60 μg/mL bovine brain hypophysis extract, 5 μg/mL human gene recombinant insulin, gentamicinamphotericin, 2% FBS, 0.01 ng/mL human gene recombinant EGF, 1 mM IBMX, and 1 μM tranylcypromine (Abcam).

aHDFs [2] = test: real-time RT-PCR of marker mRNA in aHDFs after retroviral gene introduction; details: F, T, L, K-introduced aHDFs; plates uncoated or coated with collagen, poly-L-lysine, laminin; day 21
Description: (§1) aHDFs were seeded on a laminin-coated 12-well plate or a laminin-uncoated 12-well plate, and the gene was introduced using a retroviral vector. The cells were cultured in CnT-Prime medium or other medium, and 21 days later, observation with a phase contrast microscope, real-time PCR, and analysis of immunocytochemistry were performed. The cells were passaged in fresh culture plates and used for RNA sequencing and penetration assay. In the in vivo experiment, cells into which F, T, L, and K had been introduced were transurethrally transplanted into the injured bladder cavity of an interstitial cystitis mouse through a catheter.
(§2) aHDFs were seeded in 12-well plates coated with atelocollagen (KOKEN; I-PC30), poly-L-lysine (ScienCell), or laminin (Easy iMatrix-511 silk) at a density of 3×10^4 cells/well. After 24 hr, the medium was replaced with the retroviral suspension that was filtrated through a 0.45 μm pore filter (Toyo Roshi Kaisha, Ltd., ADVANTEC) and supplemented with 4 μg/mL polybrene. The next day, the culture supernatant was replaced with Standard Medium free of virus, and replaced with CnT-Prime or “UCM” medium 3 days later. The culture medium was changed every 3 or 4 days.
Total RNA was extracted using RNeasy Mini Kit (Qigen) according to the manufacturer's protocol. […] The relative mRNA expression levels were calculated from the following formula: […]

aHDFs [3] = test: epithelial (urothelial) cell colony formation, phase contrast microscope observation; details: F, T, L, K-introduced aHDFs; plates uncoated or coated with collagen, poly-L-lysine, laminin; day 21
Description: as §1, §2

N[C@@H]1C[C@H]1c1ccccc1 (racemic) [tranylcypromine]
formation of urothelial cell colonies ([1]; Uromedium with addition of 1 μM tranylcypromine, 21 days): enhanced

CC(C)Cn1c(=O)n(C)c(=O)c2[nH]cnc21 [IBMX, 3-isobutyl 1-methylxanthine]
expression of UPK2 mRNA ([1]; 1-10 mM IBMX in Uromedium, day 21): played a beneficial role | epithelial cell colony formation ([1]; medium containing 10 mM IBMX, 21 days): form epithelial cell colonies

C[C@]12CCC(=O)C=C1CC[C@@H]1[C@@H]2[C@@H](O)C[C@@]2(C)[C@H]1CC[C@]2(O)C(=O)CO [hydrocortisone]
influence of concentration of the component on UPK2 mRNA ([1]; day 21): not definitive

EGF: human gene recombinant epidermal growth factor
mRNA expression of UPK2 ([1]; addition of 0.01-1 ng/mL EGF, day 21): increased

insulin: human gene recombinant insulin
influence of concentration of the component on UPK2 mRNA ([1]; day 21): not definitive

laminin
expression of UPK1b and UPK2 mRNAs by plate coating (aHDFs [2]): the highest | epithelial cell colony formation by plate coating (aHDFs [3]): formed only in laminin-coated plates

Reference: patent US20220298486A1, “UROTHELIAL CELL INDUCTION AGENT AND METHOD FOR INDUCING UROTHELIAL CELLS” (CellAxia Inc, priority 2019, published 2022)
